In patent publication US9636327B2 (University Health Network, Toronto General Hospital, priority 2013, dated 2017):

Assays:
[1] = more water-soluble than dantrolene; cited from earlier work
[2] = system: isolated rabbit hearts; test: Ex-vivo rabbit model: Langendorff-perfused isolated hearts, VF induction and optical mapping of calcium alternans; parameters: species or system New-Zealand white rabbits
Protocol: New-Zealand white rabbits with weight ranging from 2.4-4.5 Kg were used. (n=14). All animals were anesthetized with sodium pentobarbital (35 mg/kg), aorta was attached to the Langendorff apparatus and retrogradely perfused with 37.5° C. oxygenated Tyrode solution with albumin 80 mg/L in deionized water equilibrated with 95% 02 and 5% CO2. Simultaneous optical mapping of epicardial surface of isolated hearts for Calcium and Voltage was performed using 0.5 mg Rhod2-AM and 10 microM/1 RH237. Blebbistatin at 10 microM/L was added to Tyrode solution to block cardiac contractions.
VF was induced by burst pacing for 30 sec at 60 Hz and 10V and hearts were continuously perfused during VF. […] VF was monitored for 4 min and then defibrillated at 5 J. Five minutes after termination of first VF episode, 4 more episodes of fibrillation-defibrillation were tried on each heart with 5 min recovery time (in sinus rhythm) in between. VF duration for each VF episode was 4 min (or shorter in case of self-termination) followed by defibrillation. […] Additionally, hearts were paced at various rates of 250, 220, 200, 180 and 160 msec Cycle Length (CL) for 30 seconds after first and second VF episodes. Simultaneous optical mapping of Calcium and voltage was performed during pacing to evaluate for Calcium Alternans. Calcium alternans was defined as beat-to-beat difference of more than 10% in Calcium wave amplitude. At the end of the experiment, LV tissue from the LV free wall was removed and frozen in liquid Nitrogen for further western blot analysis.
P<0.05 was considered statistically significant.

[3] = system: Yorkshire pigs; test: In-vivo swine model of VF cardiac arrest with CPR and defibrillation;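 further: VF induced by burst pacing in anesthetized pigs, left untreated 4 min, then 3 min CPR and defibrillation, with ECG and aortic pressure monitored for 30 min afterwards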
From the text: Previously healthy 10-12 weeks-old Yorkshire pigs (n=24) were used. […] Following endotracheal intubation anesthesia was maintained by continuous administration of Isoflurane (2% mixed with 100% O2) and ventilated (Ohio ventilator R.A.E. Technologies, Inc. Ontario) at 21 breaths/min and was continuously measured using CO2MO Plus monitoring system (Novametrix Medical Systems). Animals were continuously monitored using Lifepak 12 Medtronic-PhysioControl defibrillator for ECG monitoring. Two self-adhesive defibrillation pads were attached to the lateral aspects of the chest wall for defibrillation. (Medtronics Inc, Redmond, Wash.)
Femoral arteries and veins were catheterized and an EP catheter (EP Technologies Inc, Sunnyvale, Calif.) was placed in the right ventricle to enable pacing and to induce VF. Two micro manometer-tipped Millar catheters (Millar Instruments, Inc, Houston, Tex.) were placed in Abdominal Aorta and right atrium. Pacing catheter was further attached to a custom designed signal acquisition and processing system. (Electrophysiological Recording system-Acqui2, Toronto, ON) The pressure and ECG signals were recorded at 1000 Hz with a 0.05 Hz high pass and 500 Hz low pass filter by custom software. (Acqui2, Cartesian Labs)
After initial monitoring and stabilization, VF was induced by burst pacing (10V of 60 Hz current for 2 seconds) and left untreated for 4 minutes. Then, chest compression was started using a pneumatic device (Lucas, Jolife AB, Lund, Sweden) at 100 compressions/min and manual ventilation at 6 breath/min using 5-6 liters/min of 100% O2 with an AMBU bag was performed. CPR was continued for 3 minutes with no interruption of chest compressions. […] After successful defibrillation, animals were monitored for 30 min to assess the outcome and occurrence of Refibrillations. At the end, survivors were sacrificed by inducing VF. If animals could not be defibrillated during refibrillation, the energy level was increased in a stepwise fashion to up to 4 attempts at 360 J.
Refibrillation was defined as recurrence of VF after at least 5 beats of a non-VF rhythm following defibrillation. Survival was determined based on presence of sBP≧30 mmHg in abdominal aorta and normal sinus rhythm at the end of 30 min observation period. Time to Return of Spontaneous Circulation (ROSC) was calculated from the onset of CPR until sBP≧60 mmHg was attained in abdominal aorta after successful defibrillation. Sustained ROSC was defined as maintenance of sBP≧60 mmHg by the end of 30-min observation post-defibrillation. Ventricular ERP was measured at baseline and at 20 minutes into recovery (if any) via the S1-S2 stimulation method. Surface ECG signals at 4 min of VF and at 7 min of VF were extracted to analyze for VF organization. A Spatio-temporal index of VF organization (Regularity Index (RI)) was used. RI was defined as the ratio of the power at the Dominant Frequency (DF) to the total power. […] The total power was calculated as the sums over the range of 5-15 Hz. Values vary between 0 (disorganized) to 1 (highly organized).
Mean time to ROSC, mean time to successful defibrillation, onset of refibrillation and regularity index of VF at different time points were analyzed using unpaired student t-test. Repeated-measures ANOVA was used to compare continuous variables between groups at different time points. Protein phosphorylation analysis and comparison of ordinal variables (number of refibrillations) were performed using Wilcoxon Mann-Whitney test. […] P<0.05 was considered statistically significant. All statistical analysis were performed using Stata 11.1 (Stata Corp LP)

[4] = 2 mg/kg bolus, defibrillation energy
[5] = 2 mg/kg bolus, post-defibrillation

In the case of `O=C1CN(/N=C/c2ncc(-c3ccc(Br)cc3)o2)C(=O)N1` [Azumolene], the “water solubility relative to dantrolene” value [1] is listed as 30 times.
For `O=C1CN(N=Cc2ccc(-c3ccc([N+](=O)[O-])cc3)o2)C(=O)N1.[Na]` [Dantrolene, 1-[[[5-(4-nitrophenyl)-2-furanyl]methylene]amino]-2,4-imidazolidinedione sodium salt], the “Incidence of CaA-ALT after second VF” value ([2]; Dantrolene 10-20 μM/l) was “approximately 12.5%”, the “mean duration of all VF episodes combined” value ([2]; Dantrolene 10-20 μM/l) was “about 194±234 sec” and the “successful attempts to induce VF (VF lasting ≧10 sec)” value ([2]; Dantrolene 10-20 μM/l infused at 1 min of first VF, 12 of 31 attempts) was 38.7%. The “VF episodes sustained >60 sec” value ([2]; Dantrolene 10-20 μM/l, 7 of 31 attempts) was 22.58%, the alternans threshold ([2]; Dantrolene 10-20 μM/l, pacing cycle length) was “about 186±11 msec CL” and the “Number of Refibrillations” value ([3]; 2 mg/kg bolus) was 0.6 ± 0.4. For the same compound, the “Number of shocks to terminate refibrillations” value ([3]; 2 mg/kg bolus) was 1 ± 0, the “Sinus rhythm immediately post-defibrillation” value ([3]; 2 mg/kg bolus) was “approximately 90.91%” and the “Survival after Refibrillation” value ([3]; 2 mg/kg bolus) was 100% (3). For the same compound, the “Time to ROSC calculated from immediately post-defibrillation” value ([3]; 2 mg/kg bolus) was “about 13±4 sec”, the “Time to onset of Refibrillation” value ([3]; 2 mg/kg bolus) was 51 ± 9 s and the “animals requiring energy levels ≦200J for defibrillating the initial VF” value ([3]; 2 mg/kg bolus) was “Ninety”. The “sBP peak at 5 min post-defibrillation” value ([3]; 2 mg/kg bolus) was “approximately 98±17 mmHg”, the “Final Rhythm PEA” value ([3]; 2 mg/kg bolus at onset of CPR) was 0% and the “Final Rhythm Sinus” value ([3]; 2 mg/kg bolus at onset of CPR) was 90.91%. The “Final Rhythm VF (or VrF)” value ([3]; 2 mg/kg bolus at onset of CPR) was 9.09%, the “ROSC (at 5 min post-defibrillation)” value ([3]; 2 mg/kg bolus at onset of CPR) was 90.91% and the “post-defibrillation VERP” value ([3]; 2 mg/kg bolus, 20 minutes into recovery) was “about 215±9 msec”. For the same compound, the “Refibrillation Incidence” value ([3]; 2 mg/kg bolus, 30 min monitoring after defibrillation) was 36.36%, the Maximum energy level [3, 4] was 187 ± 62 J and the Total energy level [3, 4] was 366 ± 139. For the same compound, the “Total time in VF Including VrF (refibrillation)” value ([3]; 2 mg/kg bolus, initial VF plus all refibrillations) was 478 ± 19 s, the “Total time in VF Excluding VrF” value ([3]; 2 mg/kg bolus, initial VF without refibrillations) was 466 ± 18 s and the QT interval post-defibrillation [3, 5] was “about 334±83 msec”. For the same compound, the “Tp-Tn (repolarization dispersion) post-defibrillation” value [3, 5] was “about 84±22 msec”, the “Number of shocks (>2 attempts)” value ([3]; 2 mg/kg bolus, share of animals needing >2 attempts) was 9.09% and the Refibrillation duration ([3]; 2 mg/kg bolus, sodium salt, 2 mg/kg) was 32 ± 6 s. The “mean dBP at the end of experiment” value ([3]; 2 mg/kg bolus, survivors) was “about 61±10 mmHg”, the “mean sBP at the end of experiment” value ([3]; 2 mg/kg bolus, survivors) was “about 84±11 mmHg” and the Successful defibrillation ([3]; Dantrolene Sodium 2 mg/kg bolus at onset of CPR after 4 min untreated VF) was 100%. The “QT interval at baseline” value ([3]; Dantrolene group, baseline) was “about 432±48 msec” and the “Tp-Tn (repolarization dispersion) at baseline” value ([3]; Dantrolene group, baseline) was “about 68±23 msec”.
